Test results: PubChem BioAssay (NCI)
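Growth conditions: 96-well plates. Treatment: test compound, 48 hours, 5 concentrations. Analysis: linear interpolation between bracketing concentrations; unreached endpoints set to highest concentration. At the GI50, growth is halved. TGI is the concentration that stops growth completely.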

Key:
Assay in all cases: DTP human tumour cell line panel, 48 h
SN12C renal = system: SN12C renal
SF-539 CNS = system: SF-539 CNS
PC-3 prostate = system: PC-3 prostate
OVCAR-8 ovarian = system: OVCAR-8 ovarian
NCI-H226 lung = system: NCI-H226 lung
TK-10 renal = system: TK-10 renal
COLO 205 colon = system: COLO 205 colon
U251 CNS = system: U251 CNS
CCRF-CEM leukemia = system: CCRF-CEM leukemia
UO-31 renal = system: UO-31 renal

## COc1cccc2c1-c1c(c3ccc([N+](=O)[O-])cc3c(=O)n1CCCN)C2=O
SN12C renal
  GI50: 3.23 µM
  TGI: 9.07 µM
SF-539 CNS
  GI50: 1.52 µM
  TGI: 3.19 µM
PC-3 prostate
  GI50: 1.43 µM
  TGI: 4.03 µM
OVCAR-8 ovarian
  GI50: 1.5 µM
  TGI: 5.66 µM
NCI-H226 lung
  GI50: 7.67 µM
  TGI: 34.3 µM
TK-10 renal
  GI50: 2.81 µM
  TGI: 13.2 µM
COLO 205 colon
  GI50: 1.34 µM
  TGI: 3.07 µM
U251 CNS
  GI50: 1.02 µM
  TGI: 2.23 µM
CCRF-CEM leukemia
  GI50: 0.183 µM
  TGI: 4.76 µM
UO-31 renal
  GI50: 1.26 µM
  TGI: 2.59 µM

## Cc1cn(C2C=CC(CO)O2)c(=O)[nH]c1=O (stereo not given)
SN12C renal
  TGI: > 1000 µM
SF-539 CNS
  TGI: > 1000 µM
PC-3 prostate
  TGI: > 1000 µM
OVCAR-8 ovarian
  TGI: > 1000 µM
NCI-H226 lung
  TGI: > 1000 µM
TK-10 renal
  TGI: > 1000 µM
COLO 205 colon
  TGI: > 1000 µM
U251 CNS
  TGI: > 1000 µM
CCRF-CEM leukemia
  TGI: > 1000 µM
UO-31 renal
  TGI: > 1000 µM

## Brc1ccc2[nH]cc(-c3nc(-c4c[nH]c5ncccc45)cs3)c2c1
SN12C renal
  GI50: 4.1 µM
  TGI: 19.4 µM
SF-539 CNS
  GI50: 5.37 µM
  TGI: 23.9 µM
PC-3 prostate
  GI50: 2.99 µM
  TGI: 13.5 µM
OVCAR-8 ovarian
  GI50: 4.07 µM
  TGI: > 100 µM
NCI-H226 lung
  GI50: 5.02 µM
  TGI: 21.7 µM
TK-10 renal
  GI50: 5.28 µM
  TGI: 17.8 µM
COLO 205 colon
  GI50: 1.13 µM
  TGI: 5.77 µM
U251 CNS
  GI50: 3.37 µM
  TGI: 12.8 µM
CCRF-CEM leukemia
  GI50: 3.99 µM
  TGI: 71.8 µM
UO-31 renal
  GI50: 1.16 µM
  TGI: 13.1 µM

## Cc1ccc(-c2c3c(nn2-c2ccc(S(N)(=O)=O)cc2)-c2ccccc2C3)cc1
SN12C renal
  GI50: 16.9 µM
  TGI: 36.9 µM
SF-539 CNS
  GI50: 18.3 µM
  TGI: 33.3 µM
PC-3 prostate
  GI50: 16.1 µM
  TGI: 42.6 µM
OVCAR-8 ovarian
  GI50: 36.4 µM
  TGI: > 100 µM
NCI-H226 lung
  GI50: 16.5 µM
  TGI: 44 µM
TK-10 renal
  GI50: 19.2 µM
  TGI: 38.1 µM
COLO 205 colon
  GI50: 23 µM
  TGI: 94.9 µM
U251 CNS
  GI50: 19 µM
  TGI: 34.7 µM
CCRF-CEM leukemia
  GI50: 3.56 µM
  TGI: > 100 µM
UO-31 renal
  GI50: 6.52 µM
  TGI: 21.8 µM

## Cc1cc2cc3ccc(N(C)C)cc3nc2cc1N
SN12C renal
  GI50: 0.411 µM
  TGI: 4.54 µM
SF-539 CNS
  GI50: 0.658 µM
  TGI: 2.49 µM
PC-3 prostate
  GI50: 0.992 µM
  TGI: 4.91 µM
OVCAR-8 ovarian
  GI50: 0.374 µM
  TGI: 2.36 µM
NCI-H226 lung
  GI50: 0.584 µM
  TGI: 3.6 µM
TK-10 renal
  GI50: 1.41 µM
  TGI: 9.44 µM
COLO 205 colon
  GI50: 0.389 µM
  TGI: 2.01 µM
U251 CNS
  GI50: 0.312 µM
  TGI: 1.61 µM
CCRF-CEM leukemia
  GI50: 0.772 µM
  TGI: 10.7 µM
UO-31 renal
  GI50: 0.642 µM
  TGI: 5.01 µM
